Test results: the NIST ThermoML archive (doi:10.1021/je9003959)
± gives the expanded uncertainty stated by the source.

Assay: xn = mol fraction of the nth substance listed
Conditions: 101 kPa, Liquid; for viscosity: Capillary tube (Ostwald / Ubbelohde) method; for speed of sound: Cylindrical cavity resonance method

CCN1CCCC1=O [1-ethyl-2-pyrrolidinone] + O
Conditions	mass density [kg/m3]	speed of sound [m/s]	viscosity [mPa·s]
293 K, x1 = 0.022	1003.49 ± 1.3	1574.8 ± 4.2	1.593 ± 0.036
293 K, x1 = 0.05	1010.45 ± 1.4	1651.9 ± 2.4	2.368 ± 0.048
293 K, x1 = 0.1	1020.31 ± 1.5	1711.9 ± 1.3	4.149 ± 0.05
293 K, x1 = 0.2	1026.26 ± 1.6	1712.2 ± 1.4	6.159 ± 0.062
293 K, x1 = 0.3	1023.9 ± 1.6	1677.6 ± 1.5	6.189 ± 0.067
293 K, x1 = 0.4	1022.18 ± 1.7	1640.4 ± 1.6	5.349 ± 0.066
293 K, x1 = 0.5	1019.16 ± 1.7	1610.7 ± 1.7	4.506 ± 0.054
293 K, x1 = 0.6	1014.04 ± 1.7	1583.1 ± 1.8	3.639 ± 0.045
293 K, x1 = 0.7	1010.43 ± 1.7	1562.1 ± 1.9	3.13 ± 0.037
293 K, x1 = 0.8	1006.66 ± 1.7	1541.7 ± 1.9	2.671 ± 0.034
293 K, x1 = 0.9	1003.19 ± 1.8	1526.1 ± 2	2.458 ± 0.031
293 K, x1 = 1	1000.55 ± 1.8	1511.6 ± 2.1	2.133 ± 0.027
298 K, x1 = 0.022	1001.76 ± 1.2	1580 ± 3.8	1.433 ± 0.031
298 K, x1 = 0.05	1007.34 ± 1.3	1648.9 ± 2.1	2.047 ± 0.038
298 K, x1 = 0.1	1016.76 ± 1.4	1699.4 ± 1.3	3.418 ± 0.045
298 K, x1 = 0.2	1021.82 ± 1.6	1694.2 ± 1.4	4.849 ± 0.062
298 K, x1 = 0.3	1019.33 ± 1.6	1658.6 ± 1.5	5.029 ± 0.063
298 K, x1 = 0.4	1016.58 ± 1.6	1621.2 ± 1.6	4.386 ± 0.056
298 K, x1 = 0.5	1014.6 ± 1.6	1591.5 ± 1.7	3.856 ± 0.047
298 K, x1 = 0.6	1009.45 ± 1.6	1564 ± 1.8	3.244 ± 0.039
298 K, x1 = 0.7	1005.98 ± 1.6	1542.9 ± 1.9	2.836 ± 0.034
298 K, x1 = 0.8	1002.26 ± 1.7	1522.6 ± 1.9	2.43 ± 0.03
298 K, x1 = 0.9	998.84 ± 1.7	1507 ± 2	2.21 ± 0.028
298 K, x1 = 1	996.24 ± 1.8	1492.5 ± 2.1	2.022 ± 0.026
303 K, x1 = 0.022	999.83 ± 1.2	1583.9 ± 3.4	1.254 ± 0.026
303 K, x1 = 0.05	1002.82 ± 1.3	1645.1 ± 1.9	1.767 ± 0.031
303 K, x1 = 0.1	1013.12 ± 1.4	1686.7 ± 1.3	2.842 ± 0.035
303 K, x1 = 0.2	1017.34 ± 1.5	1675.8 ± 1.4	4.088 ± 0.045
303 K, x1 = 0.3	1014.71 ± 1.5	1639.3 ± 1.5	4.164 ± 0.048
303 K, x1 = 0.4	1012.16 ± 1.5	1601.7 ± 1.6	3.621 ± 0.043
303 K, x1 = 0.5	1010 ± 1.6	1572.1 ± 1.7	3.28 ± 0.038
303 K, x1 = 0.6	1004.1 ± 1.6	1544.6 ± 1.8	2.86 ± 0.034
303 K, x1 = 0.7	1001.5 ± 1.6	1523.6 ± 1.9	2.527 ± 0.03
303 K, x1 = 0.8	997.83 ± 1.7	1503.4 ± 1.9	2.218 ± 0.028
303 K, x1 = 0.9	994.48 ± 1.8	1487.9 ± 2	2.011 ± 0.025
303 K, x1 = 1	991.93 ± 1.9	1473.3 ± 2.1	1.832 ± 0.024
313 K, x1 = 0.022	995.35 ± 1.3	1588.3 ± 2.8	0.9966 ± 0.019
313 K, x1 = 0.05	997.46 ± 1.2	1634.8 ± 1.6	1.327 ± 0.022
313 K, x1 = 0.1	1005.63 ± 1.3	1660.4 ± 1.3	2.051 ± 0.027
313 K, x1 = 0.2	1008.28 ± 1.4	1639.1 ± 1.4	2.879 ± 0.034
313 K, x1 = 0.3	1005.38 ± 1.4	1600.7 ± 1.5	2.966 ± 0.035
313 K, x1 = 0.4	1001.82 ± 1.4	1562.8 ± 1.6	2.6 ± 0.031
313 K, x1 = 0.5	1000.71 ± 1.4	1533.3 ± 1.7	2.509 ± 0.029
313 K, x1 = 0.6	995 ± 1.6	1506 ± 1.8	2.262 ± 0.027
313 K, x1 = 0.7	992.48 ± 1.7	1485.3 ± 1.9	2.04 ± 0.025
313 K, x1 = 0.8	988.94 ± 1.8	1465.2 ± 1.9	1.777 ± 0.022
313 K, x1 = 0.9	985.71 ± 1.9	1449.9 ± 2	1.702 ± 0.021
313 K, x1 = 1	983.26 ± 2	1435.3 ± 2.1	1.621 ± 0.021
323 K, x1 = 0.022	989.91 ± 1.3	1588.3 ± 2.2	0.8044 ± 0.015
323 K, x1 = 0.05	991.01 ± 1.3	1622.3 ± 1.4	1.073 ± 0.014
323 K, x1 = 0.1	997.84 ± 1.3	1633.2 ± 1.3	1.358 ± 0.02
323 K, x1 = 0.2	999.06 ± 1.3	1602.1 ± 1.5	2.164 ± 0.029
323 K, x1 = 0.3	995.92 ± 1.4	1561.9 ± 1.6	2.234 ± 0.028
323 K, x1 = 0.4	992.73 ± 1.5	1523.7 ± 1.6	2.014 ± 0.023
323 K, x1 = 0.5	991.3 ± 1.5	1494.4 ± 1.7	1.986 ± 0.024
323 K, x1 = 0.6	985.81 ± 1.7	1467.5 ± 1.8	1.856 ± 0.022
323 K, x1 = 0.7	983.37 ± 1.8	1447.1 ± 1.9	1.67 ± 0.02
323 K, x1 = 0.8	979.96 ± 1.9	1427.3 ± 1.9	1.54 ± 0.019
323 K, x1 = 0.9	976.89 ± 2	1412.2 ± 2	1.435 ± 0.018
323 K, x1 = 1	974.56 ± 2.1	1398 ± 2.1	1.358 ± 0.018
